Results: ChEMBL document CHEMBL1158710, “Cytotoxic flavonoids from Platymiscium floribundum” (J Nat Prod, 2005)
In brackets after ≈: the same amount, converted by molar mass.

How the values were obtained:
Assay type in all cases: functional, cell-based
CCRF-CEM = assay: Cytotoxicity against human CEM cells after 72 hrs by MTT assay
HL-60 = assay: Cytotoxicity against human HL60 cells after 72 hrs by MTT assay; details: HL-60, 72 h
HCT-8 = assay: Cytotoxicity against human HCT8 cells after 72 hrs by MTT assay; details: HCT-8, 72 h
MCF7 = assay: Cytotoxicity against human MCF7 cells after 72 hrs by MTT assay; details: MCF7, 72 h
B16 = assay: Cytotoxicity against mouse B16 cells after 72 hrs by MTT assay; details: B16, 72 h

Row | SMILES | IC50 (CCRF-CEM) [µg/mL] | IC50 (HL-60) [µg/mL] | IC50 (HCT-8) [µg/mL] | IC50 (MCF7) [µg/mL] | IC50 (B16) [µg/mL]
1 | COc1ccc2c(c1)OC1c3cc(OC)c(OC)cc3OCC21 (stereo unspecified) | 0.6 (≈ 1.91 µM) | 0.1 (≈ 0.318 µM) | 0.6 (≈ 1.91 µM) | 0.7 (≈ 2.23 µM) | 2.9 (≈ 9.23 µM)
2 | COc1cccc2c1C(=O)c1c(O)c3c(c(O)c1C2=O)C[C@@](O)(C(=O)CO)C[C@@H]3O[C@H]1C[C@H](N)[C@H](O)[C@H](C)O1 [DOXORUBICIN] | – | – | – | 0.2 (≈ 0.368 µM) | –
3 | COc1ccc2c(c1)O[C@H]1c3ccc(OC)cc3OC[C@@H]21 [HOMOPTEROCARPIN] | 5.5 (≈ 19.3 µM) | 3.9 (≈ 13.7 µM) | 6.4 (≈ 22.5 µM) | 18.5 (≈ 65.1 µM) | 5.2 (≈ 18.3 µM)
4 | O=C1C[C@@H](c2ccc(O)cc2)Oc2cc(O)ccc21 [LIQUIRTIGENIN] | > 25 | 22.5 (≈ 87.8 µM) | 19.5 (≈ 76.1 µM) | > 25 | 5 (≈ 19.5 µM)
5 | COc1ccc2c(c1)OC1c3ccc(O)c(O)c3OCC21 (stereo unspecified) [VESTICARPAN] | 7.3 (≈ 25.5 µM) | 6.9 (≈ 24.1 µM) | 12.4 (≈ 43.3 µM) | 10 (≈ 34.9 µM) | 2.7 (≈ 9.43 µM)
